The nature of assay [1]: HPTS assay, internal pH of EYPC liposomes. The note with it: 5 mM (50 mol% relative to 10 mM EYPC), NaOH pulse at 300 s. How it is done:
Figure 2 (A) Partition of compounds in an U-tube experiment. Concentration of biguanide on the trans-side of the U-tube at 48 h and 72 h at 25 °C, after addition of 250 µM of biguanide on the cis-side. (B) Variation in the internal pH of HPTS-containing EYPC liposomes. Intravesicular solution: 1 mM HPTS, 10 mM HEPES, and 100 mM NaCl, adjusted to pH = 7.4, and extravesicular solution: 10 mM HEPES and 100 mM NaCl, adjusted to pH = 7.4. Biguanidiums were injected after 50 s at 5 mM (50 mol% relative to the 10 mM EYPC concentration), a NaOH pulse was induced at 300 s, and the liposomes were lysed with Triton-X at 550 s. Each curve is the average of three independent measurements. (C) Fluorescence of safranin O in the EYPC liposomes. Biguanidium salts were injected at 5 mM (50 mol% relative to the 10 mM EYPC concentration) at 50 s. Each curve is the average of three independent measurements. […] Mitochondrial isolation was performed according to the previously reported protocol.

Assay [2] deals with KP4 cells. In words: Growth assay (crystal violet), KP4 cells. Conditions: for IC50: KP4 cells. It counts as cell-based, human. How it is done: (§1) All chemicals were purchased from Aldrich Chemicals in their highest purity and used without further purification. Deuterated dimethylsulfoxide (DMSO-d^6) and deuterated chloroform (CDCl3) were purchased from CDN Isotopes. NMR spectra were recorded on Bruker advance 400 and 100 spectrometers. Coupling constants are given in hertz (Hz) and chemical shifts are given in parts per million (ppm, δ) measured relative to the residual solvent (the multiplicity of the signals are given as s: singlet, d: doublet, t: triplet, and m: multiplet). High-resolution mass spectra (HRMS) were recorded on a TSQ Quantum Ultra (Thermo Scientific) triple quadrupole with accurate mass option instrument (Université de Montréal Mass Spectrometry Facility). MS experiences were performed using an UltrafleXtreme MALDI TOF/TOF mass spectrometer equipped with a SmartBeam II Nd:Yag/355 nm laser operating at 1 kHz and providing a laser focus down to 20 μm in diameter (Bruker Daltonics, Billerica, MA). The data acquisition for MS was performed in positive ion mode using the linear geometry with flexControl 3.4 (Bruker Daltonics, Billerica, MA). Acceleration voltage was set to + 25 kV and all other instrumental parameters (delayed extraction parameters, source voltages, detector gain, laser energy, etc.) were optimized for maximum S/N for the drug compounds. L-α-Phosphatidylcholine was purchased from Avanti Polar Lipids. Transport and depolarization studies as well as absorbance measurements were performed on a Varian Cary Eclipse fluorescence spectrophotometer. The hemolysis assays were performed on a Fluostar Optima plate reader. Single crystals of C18H18F3N5O3S were obtained from chloroform. A suitable crystal was selected and analysed on a Bruker Venture Metaljet diffractometer. Crystal violet retention assay was used for cell growth assays and IC50 were determined using Prism (GraphPad). NAD/NADH quantitation colorimetric kit (#K337-100) from Biovision was used according to manufacturer’s instructions. ECAR (extracellular acidification rate) and OCR of KP4 cells (oxygen consumption rate) were measured on a Seahorse XF-24 (Agilent).
Experimental. KP4 (Riken RCB1005) and PSN1 (ATCC: CRM-CRL-3211), were cultured in Dulbecco's modified Eagle's medium (DMEM) (Wisent, St-Bruno, QC) supplemented with 10 % of fetal bovine serum (FBS) (Wisent). HPNE hTERT (ATCC: CRL1423) were cultured in a mix of 75% DMEM without glucose (Sigma Cat#. D-5030) with additional 2 mM L-glutamine and 1.5 g/L sodium bicarbonate, 25% Medium M3 Base (Incell Corp. Cat# M300F- 500), fetal bovine serum 5% (wisent 10 ng/ml human recombinant EGF (Sigma-Aldrich), 5.5 mM D-glucose (Sigma-Aldrich), 750 ng/ml puromycin (Sigma-Aldrich). For dose-response assays, cells were seeded in 96 well plates (company). After 24 h, treatments were applied and cells were grown for 3 more days. Crystal violet retention assay used for cell growth assays were described previously^2. The data is expressed as relative absorbance of crystal violet extracted from the cells and diluted in 10 % acetic acid. IC50 were determined using Prism (GraphPad). Tumor spheres were grew according to Ferbeyre et al^3.

In a further assay the test system is Panc1 cells. In words: Growth assay (crystal violet), Panc1 cells. The assay is classed as cell-based. Conditions: Homo sapiens, PANC-1, 72 h.
For assay [3], the system named is KP4 cells. In words: Seahorse analysis of OCR and ECAR, KP4 cells. It counts as cell-based, human. The note with it: 1b 15 µM; for Effect on ECAR (extracellular acidification rate): metformin; for Effect on oxygen consumption rate (OCR): metformin 5 mM.
Description: Figure 3 Effects of biguanides on cell proliferation and viability in pancreatic cancer cells. […]. […] | decimal sign comma or point
Next, we used the Seahorse analyser to quantify the ability of compound 1b to affect oxygen consumption rate (OCR) in KP4 cells. […]. […] […].
as §1
Experimental. ECAR (extracellular acidification rate) and OCR of KP4 cells (oxygen consumption rate) were measured on a Seahorse XF-24 (Agilent). The day before the experiment, KP4 cells were seeded in XF24 FluxPak seahorse plates (Agilent) at a density of 40.000 cells per well, in usual KP4 culture medium (DMEM, 10% FSB). […]

[4] abbreviates: Homo sapiens, KP-4, 72 h, 72 hours, read-out: IC50.

Read-outs that look alike come from different tables or passages of the source.

On to `CN(C)C(=N)NC(=N)N` [metformin, 1,1-dimethylbiguanide, reference compound], for which, in assay [1], the “Change of internal vesicular pH (HPTS)” value is recorded as “no membrane activity”. Moreover, the IC50 (in general, the point on the concentration scale where inhibition reaches its midpoint) in the assay with KP4 cells [2] (setting [4]) is around 5000 µM. The same compound gave an IC50 with Panc1 cells of around 5000 µM. In the assay on KP4 cells [3], the “Effect on ECAR (extracellular acidification rate)” value is listed as “increase of the ECAR” and the “Effect on oxygen consumption rate (OCR)” value is reported as “Inhibition of OCR”.

Take `N=C(N)NC(=N)NCc1ccc(C#Cc2ccccc2)cc1` [1b, 4-(phenylethynyl)benzylbiguanide]: the “Change of internal vesicular pH (HPTS)” value in assay [1] is on record as “basification of the internal vesicular pH”. In addition, the IC50 came to 6.1 µM in the assay with KP4 cells [2] (setting [4]); 6.13 µM in the assay on KP4 cells [2] (3 days treatment, crystal violet retention assay, read-out: IC50 KP4); 15 µM in the assay with Panc1 cells. For the same compound, the “IC50 fold lower than phenformin” value in the assay on KP4 cells [2] (KP4 and Panc1 cells) was 8–12 fold. Also, in the assay with KP4 cells [2] (conclusion), the “Fold more active than metformin” value was found to be 1000 fold. Moreover, in the assay with KP4 cells [3], the “Effect on ECAR (extracellular acidification rate)” value is on record as “also observed with compound 1b”. Further, the “Effect on oxygen consumption rate (OCR)” value in the assay with KP4 cells [3] is reported as “inhibited OCR”.

These data come from PMC8110578, “Phenylethynylbenzyl-modified biguanides inhibit pancreatic cancer tumor growth” (Scientific Reports, 2021).
